# From ChEMBL document CHEMBL1157599, “Synthesis, in vitro and in vivo biological evaluation, docking studies, and structure--activity relationship (SAR) discussion of dipeptidyl boronic acid proteasome inhibitors composed of beta-amino acids” (J Med Chem, 2010)
# Tests used:
# [1] = Inhibition of chymotrypsin-like activity of human 20S proteosome assessed as hydrolysis of fluorogenic Suc-Leu-Leu-Val-Tyr-AMC substrate
# [2] = Toxicity against zebrafish embryo assessed as morphological changes at 10 umol after 24 hrs; set-up: species or system Danio rerio; conditions: in vivo
# [3] = Toxicity against zebrafish embryo assessed as morphological changes at 1 umol after 24 hrs; set-up: species or system Danio rerio; conditions: in vivo
# [4] = Cytotoxicity against human BCG823 cells after 72 hrs by MTT assay; assay type: functional, cell-based; conditions: BCG823, 72 h
# [5] = test system: NCI-H460; assay: Cytotoxicity against human H460 cells after 72 hrs by MTT assay; assay type: functional, cell-based; conditions: NCI-H460, 72 h
# [6] = test system: BXPC-3; assay: Cytotoxicity against human BxPC3 cells after 72 hrs by MTT assay; assay type: functional, cell-based; conditions: BXPC-3, 72 h
# [7] = test system: SW480; assay: Cytotoxicity against human SW480 cells after 72 hrs by MTT assay; assay type: functional, cell-based; conditions: SW480, 72 h
# [8] = test system: A549; assay: Cytotoxicity against human A549 cells after 72 hrs by MTT assay; assay type: functional, cell-based; conditions: A549, 72 h
# [9] = test system: PC-3; assay: Cytotoxicity against human PC3 cells after 72 hrs by MTT assay; assay type: functional, cell-based; conditions: PC-3, 72 h
# [10] = test system: SK-OV-3; assay: Cytotoxicity against human SKOV3 cells after 72 hrs by MTT assay; assay type: functional, cell-based; conditions: SK-OV-3, 72 h
# [11] = test system: HL-60; assay: Cytotoxicity against human HL60 cells after 72 hrs by MTT assay; assay type: functional, cell-based; conditions: HL-60, 72 h
# [12] = test system: U-266; assay: Cytotoxicity against human U266 cells after 72 hrs by MTT assay; assay type: functional, cell-based; conditions: U-266, 72 h
# [13] = test system: HepG2; assay: cells; conditions: Homo sapiens, HepG2, 72 h
# Description: Cytotoxicity against human HepG2 cells after 72 hrs by MTT assay
# [14] = Tmax in Sprague-Dawley rat at 1 mg/kg, iv; assay type: ADME, organism-based; set-up: dose 1 mg/kg, route intravenous; conditions: in vivo
# [15] = Cmax in Sprague-Dawley rat at 1 mg/kg, iv; assay type: ADME, organism-based; set-up: dose 1 mg/kg, route intravenous; conditions: in vivo
# [16] = Mean residence time in Sprague-Dawley rat at 1 mg/kg, iv; assay type: ADME, organism-based; set-up: dose 1 mg/kg, route intravenous; conditions: in vivo
# [17] = AUC (0 to t) in Sprague-Dawley rat at 1 mg/kg, iv; assay type: ADME, organism-based; set-up: dose 1 mg/kg, route intravenous; conditions: plasma
# [18] = Terminal half life in Sprague-Dawley rat at 1 mg/kg, iv; assay type: ADME, organism-based; set-up: dose 1 mg/kg, route intravenous; conditions: in vivo, read-out: beta t1/2 (converted)
# [19] = Volume of distribution in Sprague-Dawley rat at 1 mg/kg, iv; assay type: ADME, organism-based; set-up: dose 1 mg/kg, route intravenous; conditions: in vivo, read-out: Vz
# [20] = Systemic clearance in Sprague-Dawley rat at 1 mg/kg, iv; assay type: ADME, organism-based; set-up: dose 1 mg/kg, route intravenous; conditions: in vivo
# [21] = test system: Rattus norvegicus; assay: Toxicity in Sprague-Dawley rat assessed as toxic reactions at 1 mg/kg, iv; assay type: organism-based; set-up: dose 1 mg/kg, route intravenous; conditions: in vivo
# [22] = test system: Rattus norvegicus; assay: Toxicity in Sprague-Dawley rat assessed as toxic reactions at 1 mg/kg, ig; assay type: organism-based; set-up: dose 1 mg/kg, route intragastric; conditions: in vivo, po
# [23] = test system: Rattus norvegicus; assay: Toxicity in Sprague-Dawley rat assessed as side effects at 2 mg/kg, iv; assay type: organism-based; set-up: dose 2 mg/kg, route intravenous; conditions: in vivo
# [24] = Toxicity against zebrafish embryo assessed as embryo death at 10 umol after 24 hrs; set-up: species or system Danio rerio; conditions: in vivo
# [25] = Toxicity against zebrafish embryo assessed as cell death in tail at 1 umol after 24 hrs; set-up: species or system Danio rerio
# [26] = Toxicity against zebrafish embryo assessed as cell death in embryo at 1 umol after 24 hrs; set-up: species or system Danio rerio
# [27] = Tmax in Sprague-Dawley rat at 1 mg/kg, ig; assay type: ADME, organism-based; set-up: dose 1 mg/kg, route intragastric; conditions: in vivo, po
# [28] = Cmax in Sprague-Dawley rat at 1 mg/kg, ig; assay type: ADME, organism-based; set-up: dose 1 mg/kg, route intragastric; conditions: in vivo, po
# [29] = Mean residence time in Sprague-Dawley rat at 1 mg/kg, ig; assay type: ADME, organism-based; set-up: dose 1 mg/kg, route intragastric; conditions: in vivo, po
# [30] = AUC (0 to t) in Sprague-Dawley rat at 1 mg/kg, ig; assay type: ADME, organism-based; set-up: dose 1 mg/kg, route intragastric; conditions: plasma, po
# [31] = Terminal half life in Sprague-Dawley rat at 1 mg/kg, ig; assay type: ADME, organism-based; set-up: dose 1 mg/kg, route intragastric; conditions: in vivo, po, read-out: beta t1/2 (converted)
# [32] = test system: Rattus norvegicus; assay: Volume of distribution in Sprague-Dawley rat at 1 mg/kg, ig; assay type: ADME, organism-based; set-up: dose 1 mg/kg, route intragastric; conditions: in vivo, po
# [33] = Systemic clearance in Sprague-Dawley rat at 1 mg/kg, ig; assay type: ADME, organism-based; set-up: dose 1 mg/kg, route intragastric; conditions: in vivo, po
# [34] = Oral bioavailability in Sprague-Dawley rat; assay type: ADME, organism-based; conditions: in vivo
# [35] = test system: Rattus norvegicus; assay: Toxicity in Sprague-Dawley rat assessed as mortality at 1 mg/kg, iv after 10 hrs; assay type: organism-based; set-up: dose 1 mg/kg, route intravenous; conditions: in vivo
# [36] = test system: Rattus norvegicus; assay: Toxicity in Sprague-Dawley rat assessed as mortality at 1 mg/kg, ig after 10 hrs; assay type: organism-based; set-up: dose 1 mg/kg, route intragastric; conditions: in vivo, po
smiles,measurement,setting,value
Cc1ccc(C[C@H](NC(=O)CC(NC(=O)c2cnccn2)c2ccccc2)B(O)O)cc1 (stereo not given in full),IC50,[1],497 nM
CC(C)C[C@H](NC(=O)CC(NC(=O)c1cnccn1)c1ccccc1)B(O)O (stereo not given in full),IC50,[1],136 nM
Cc1ccc(C(CC(=O)N[C@@H](CC(C)C)B(O)O)NC(=O)c2cnccn2)cc1 (stereo not given in full),IC50,[1],69.8 nM
CC(C)C[C@H](NC(=O)CC(NC(=O)c1ccccc1)c1ccccc1)B(O)O (stereo not given in full),IC50,[1],40 nM
COc1ccc([C@H](CC(=O)N[C@@H](CC(C)C)B(O)O)NC(=O)c2ccccc2)cc1,Activity,[2],Non-toxic
same,Activity,[3],Non-toxic
same,IC50,[1],350 nM
same,IC50,[4],76900 nM
same,IC50,[5],25200 nM
same,IC50,[6],2820 nM
same,IC50,[7],1720 nM
same,IC50,[8],3680 nM
same,IC50,[9],1110 nM
same,IC50,[10],14500 nM
same,IC50,[11],700 nM
same,IC50,[12],1280 nM
same,IC50,[13],5130 nM
CC(C)C[C@H](NC(=O)CC(NC(=O)c1cccnc1)c1ccc(Cl)cc1)B(O)O (stereo not given in full),IC50,[1],180 nM
COc1ccc(C(CC(=O)N[C@@H](CC(C)C)B(O)O)NC(=O)c2cccc3c2CCCC3)cc1 (stereo not given in full),IC50,[1],161 nM
COc1ccc(C(CC(=O)N[C@@H](CC(C)C)B(O)O)NC(=O)c2cnccn2)cc1 (stereo not given in full),IC50,[1],134 nM
CC(C)C[C@H](NC(=O)CC(NC(=O)c1cnccn1)c1ccc(Cl)cc1)B(O)O (stereo not given in full),IC50,[1],121 nM
O=C(CC(NC(=O)c1cnccn1)c1ccccc1)N[C@@H](Cc1ccccc1)B(O)O (stereo not given in full),IC50,[1],664 nM
Cc1ccc(C(CC(=O)N[C@@H](CC(C)C)B(O)O)NC(=O)c2cccnc2)cc1 (stereo not given in full),IC50,[1],165 nM
Cc1ccc(C(CC(=O)N[C@@H](CC(C)C)B(O)O)NC(=O)c2ccccc2)cc1 (stereo not given in full),IC50,[1],14 nM
COc1ccc(C(CC(=O)N[C@@H](CC(C)C)B(O)O)NC(=O)c2ccccc2)cc1 (stereo not given in full),IC50,[1],12.5 nM
same,IC50,[4],30900 nM
same,IC50,[5],36000 nM
same,IC50,[6],1500 nM
same,IC50,[7],1080 nM
same,IC50,[8],3450 nM
same,IC50,[9],830 nM
same,IC50,[10],8430 nM
same,IC50,[11],1020 nM
same,IC50,[12],2650 nM
same,IC50,[13],5590 nM
CC(C)C[C@H](NC(=O)CC(NC(=O)c1cccnc1)c1ccccc1)B(O)O (stereo not given in full),IC50,[1],382 nM
CC(C)C[C@H](NC(=O)CC(NC(=O)c1ccccc1)c1ccc(Cl)cc1)B(O)O (stereo not given in full),IC50,[1],30 nM
COc1ccc([C@@H](CC(=O)N[C@@H](CC(C)C)B(O)O)NC(=O)c2ccccc2)cc1,Tmax,[14],1.8 min
same,Cmax,[15],2930 ng/mL
same,MRT,[16],2.8 h
same,AUC(0-t),[17],933 ng·h/mL
same,half-life,[18],5.3 h
same,Vd,[19],8.45 L/kg
same,clearance,[20],18.8 mL/min/kg
same,Activity,[21],Non-toxic
same,Activity,[22],Non-toxic
same,Activity,[23],Non-toxic
same,IC50,[1],9.6 nM
same,IC50,[4],74400 nM
same,IC50,[5],14600 nM
same,IC50,[6],380 nM
same,IC50,[7],410 nM
same,IC50,[8],830 nM
same,IC50,[9],230 nM
same,IC50,[10],3490 nM
same,IC50,[11],140 nM
same,IC50,[12],350 nM
same,IC50,[13],1880 nM
COc1ccc(C(CC(=O)N[C@@H](CC(C)C)B(O)O)NC(=O)c2cccnc2)cc1 (stereo not given in full),IC50,[1],35 nM
CC(C)C[C@H](NC(=O)[C@H](Cc1ccccc1)NC(=O)c1cnccn1)B(O)O [BORTEZOMIB],Activity,[24],Toxic
same,Activity,[25],28.5%
same,Activity,[26],52.4%
same,Tmax,[14],1.8 min
same,Cmax,[15],1080 ng/mL
same,MRT,[16],1.4 h
same,AUC(0-t),[17],654 ng·h/mL
same,half-life,[18],2 h
same,Vd,[19],3.74 L/kg
same,clearance,[20],23.9 mL/min/kg
same,Tmax,[27],0.23 h
same,Cmax,[28],161 ng/mL
same,MRT,[29],7.69 h
same,AUC(0-t),[30],303 ng·h/mL
same,half-life,[31],7.47 h
same,Vz,[32],29.791 L/kg
same,CL/F,[33],44.7 mL/min/kg
same,bioavailability,[34],46%
same,Activity,[35],Toxic
same,Activity,[36],Toxic
same,IC50,[1],2.48 nM
same,IC50,[4],3290 nM
same,IC50,[5],780 nM
same,IC50,[6],16.2 nM
same,IC50,[7],6.1 nM
same,IC50,[8],6.7 nM
same,IC50,[9],7 nM
same,IC50,[10],151 nM
same,IC50,[11],7.1 nM
same,IC50,[12],8.8 nM
same,IC50,[13],7.5 nM
